Data as given in ChEMBL document CHEMBL1152211, “Structure-activity study at positions 3 and 4 of human neuropeptide S” (Bioorg Med Chem, 2008).
pEC50: −log10 of the molar value. Counter-ions that a name gives are not always drawn. Non-standard residues stand in square brackets, D forms with d. Residues, ends and D or L forms follow the SMILES beside them. *: point of attachment. Arg(NO2) = N=C(NCCC[C@H](N)C(=O)O)N[N+](=O)[O-]; Arg(Me2a) = CN(C)C(=N)NCCC[C@H](N)C(=O)O; Arg(Me2s) = CN=C(NC)NCCC[C@H](N)C(=O)O; Nva(4-oxo) = CC(=O)C[C@H](N)C(=O)O; 2Pal = N[C@@H](Cc1ccccn1)C(=O)O; Tos = Cc1ccc(S(=O)(=O)*)cc1; Dab = NCC[C@H](N)C(=O)O; Nva = CCC[C@H](N)C(=O)O; Abu = CC[C@H](N)C(=O)O; Tfa = O=C(C(F)(F)F)*

molecular target: T1, Neuropeptide S receptor (Mus musculus) (UniProt Q8BZP8); assay: Agonist activity at mouse NPSR expressed in HEK293 cells assessed as increase in intracellular calcium mobilization by FLIPR relative to baseline; format: functional, cell-based
T1 sequence (whole entry): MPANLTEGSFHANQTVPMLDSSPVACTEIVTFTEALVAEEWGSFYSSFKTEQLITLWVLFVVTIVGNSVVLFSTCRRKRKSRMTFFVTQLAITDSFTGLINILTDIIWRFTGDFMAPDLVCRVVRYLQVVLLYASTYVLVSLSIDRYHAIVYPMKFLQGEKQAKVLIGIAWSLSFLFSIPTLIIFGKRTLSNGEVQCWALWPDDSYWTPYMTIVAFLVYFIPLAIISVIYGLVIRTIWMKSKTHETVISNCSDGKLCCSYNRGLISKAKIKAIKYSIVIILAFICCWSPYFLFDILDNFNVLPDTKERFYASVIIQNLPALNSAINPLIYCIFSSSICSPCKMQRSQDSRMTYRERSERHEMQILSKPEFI

Compound | Emax
CSCC[C@H](NC(=O)CNC(=O)[C@@H](NC(=O)CNC(=O)[C@@H](NC(=O)CNC(=O)[C@H](CC(N)=O)NC(=O)[C@H](CCCCNC(=O)C(F)(F)F)NC(=O)[C@H](Cc1ccccc1)NC(=O)[C@@H](N)CO)C(C)C)[C@@H](C)O)C(=O)N[C@@H](CCCCN)C(=O)N[C@@H](CCCCN)C(=O)N[C@H](C(=O)N[C@@H](CO)C(=O)N[C@@H](Cc1ccccc1)C(=O)N[C@@H](CCC(N)=O)C(=O)N[C@@H](CCCNC(=N)N)C(=O)N[C@@H](C)C(=O)N[C@@H](CCCCN)C(=O)N[C@@H](CO)C(=O)O)[C@@H](C)O (H-SFK(Tfa)NGVGTGMKKTSFQRAKS-OH) | 231%
CC[C@H](NC(=O)[C@H](Cc1ccccc1)NC(=O)[C@@H](N)CO)C(=O)N[C@@H](CC(N)=O)C(=O)NCC(=O)N[C@H](C(=O)NCC(=O)N[C@H](C(=O)NCC(=O)N[C@@H](CCSC)C(=O)N[C@@H](CCCCN)C(=O)N[C@@H](CCCCN)C(=O)N[C@H](C(=O)N[C@@H](CO)C(=O)N[C@@H](Cc1ccccc1)C(=O)N[C@@H](CCC(N)=O)C(=O)N[C@@H](CCCNC(=N)N)C(=O)N[C@@H](C)C(=O)N[C@@H](CCCCN)C(=O)N[C@@H](CO)C(=O)O)[C@@H](C)O)[C@@H](C)O)C(C)C (H-SF[Abu]NGVGTGMKKTSFQRAKS-OH) | 218%
CSCC[C@H](NC(=O)CNC(=O)[C@@H](NC(=O)CNC(=O)[C@@H](NC(=O)CNC(=O)[C@H](CC(N)=O)NC(=O)[C@H](CCCN/C(N)=N/[N+](=O)[O-])NC(=O)[C@H](Cc1ccccc1)NC(=O)[C@@H](N)CO)C(C)C)[C@@H](C)O)C(=O)N[C@@H](CCCCN)C(=O)N[C@@H](CCCCN)C(=O)N[C@H](C(=O)N[C@@H](CO)C(=O)N[C@@H](Cc1ccccc1)C(=O)N[C@@H](CCC(N)=O)C(=O)N[C@@H](CCCNC(=N)N)C(=O)N[C@@H](C)C(=O)N[C@@H](CCCCN)C(=O)N[C@@H](CO)C(=O)O)[C@@H](C)O (H-SF[Arg(NO2)]NGVGTGMKKTSFQRAKS-OH) | 288%

molecular target: T2, Neuropeptide S receptor (Mus musculus, UniProt Q8BZP8); assay: Agonist activity at mouse NPSR expressed in HEK293 cells assessed as increase in intracellular calcium mobilization by FLIPR; format: functional, cell-based
T2 sequence (Q8BZP8 whole entry): T1 sequence (whole entry)

Compound | pEC50
CSCC[C@H](NC(=O)CNC(=O)[C@@H](NC(=O)CNC(=O)[C@@H](NC(=O)CNC(=O)[C@H](CC(N)=O)NC(=O)[C@H](CCCCNC(=O)C(F)(F)F)NC(=O)[C@H](Cc1ccccc1)NC(=O)[C@@H](N)CO)C(C)C)[C@@H](C)O)C(=O)N[C@@H](CCCCN)C(=O)N[C@@H](CCCCN)C(=O)N[C@H](C(=O)N[C@@H](CO)C(=O)N[C@@H](Cc1ccccc1)C(=O)N[C@@H](CCC(N)=O)C(=O)N[C@@H](CCCNC(=N)N)C(=O)N[C@@H](C)C(=O)N[C@@H](CCCCN)C(=O)N[C@@H](CO)C(=O)O)[C@@H](C)O (H-SFK(Tfa)NGVGTGMKKTSFQRAKS-OH) | 7.07
CC[C@H](NC(=O)[C@H](Cc1ccccc1)NC(=O)[C@@H](N)CO)C(=O)N[C@@H](CC(N)=O)C(=O)NCC(=O)N[C@H](C(=O)NCC(=O)N[C@H](C(=O)NCC(=O)N[C@@H](CCSC)C(=O)N[C@@H](CCCCN)C(=O)N[C@@H](CCCCN)C(=O)N[C@H](C(=O)N[C@@H](CO)C(=O)N[C@@H](Cc1ccccc1)C(=O)N[C@@H](CCC(N)=O)C(=O)N[C@@H](CCCNC(=N)N)C(=O)N[C@@H](C)C(=O)N[C@@H](CCCCN)C(=O)N[C@@H](CO)C(=O)O)[C@@H](C)O)[C@@H](C)O)C(C)C (H-SF[Abu]NGVGTGMKKTSFQRAKS-OH) | 6.29
CSCC[C@H](NC(=O)CNC(=O)[C@@H](NC(=O)CNC(=O)[C@@H](NC(=O)CNC(=O)[C@H](CC(N)=O)NC(=O)[C@H](CCCNC(=N)N(C)C)NC(=O)[C@H](Cc1ccccc1)NC(=O)[C@@H](N)CO)C(C)C)[C@@H](C)O)C(=O)N[C@@H](CCCCN)C(=O)N[C@@H](CCCCN)C(=O)N[C@H](C(=O)N[C@@H](CO)C(=O)N[C@@H](Cc1ccccc1)C(=O)N[C@@H](CCC(N)=O)C(=O)N[C@@H](CCCNC(=N)N)C(=O)N[C@@H](C)C(=O)N[C@@H](CCCCN)C(=O)N[C@@H](CO)C(=O)O)[C@@H](C)O (H-SF[Arg(Me2a)]NGVGTGMKKTSFQRAKS-OH) | 7.65
C/N=C(/NC)NCCC[C@H](NC(=O)[C@H](Cc1ccccc1)NC(=O)[C@@H](N)CO)C(=O)N[C@@H](CC(N)=O)C(=O)NCC(=O)N[C@H](C(=O)NCC(=O)N[C@H](C(=O)NCC(=O)N[C@@H](CCSC)C(=O)N[C@@H](CCCCN)C(=O)N[C@@H](CCCCN)C(=O)N[C@H](C(=O)N[C@@H](CO)C(=O)N[C@@H](Cc1ccccc1)C(=O)N[C@@H](CCC(N)=O)C(=O)N[C@@H](CCCNC(=N)N)C(=O)N[C@@H](C)C(=O)N[C@@H](CCCCN)C(=O)N[C@@H](CO)C(=O)O)[C@@H](C)O)[C@@H](C)O)C(C)C (H-SF[Arg(Me2s)]NGVGTGMKKTSFQRAKS-OH) | 7.50
CSCC[C@H](NC(=O)CNC(=O)[C@@H](NC(=O)CNC(=O)[C@@H](NC(=O)CNC(=O)[C@H](CC(N)=O)NC(=O)[C@H](CCCN/C(N)=N/[N+](=O)[O-])NC(=O)[C@H](Cc1ccccc1)NC(=O)[C@@H](N)CO)C(C)C)[C@@H](C)O)C(=O)N[C@@H](CCCCN)C(=O)N[C@@H](CCCCN)C(=O)N[C@H](C(=O)N[C@@H](CO)C(=O)N[C@@H](Cc1ccccc1)C(=O)N[C@@H](CCC(N)=O)C(=O)N[C@@H](CCCNC(=N)N)C(=O)N[C@@H](C)C(=O)N[C@@H](CCCCN)C(=O)N[C@@H](CO)C(=O)O)[C@@H](C)O (H-SF[Arg(NO2)]NGVGTGMKKTSFQRAKS-OH) | 7.66

molecular target: T1, Neuropeptide S receptor (Mus musculus); assay: Agonist activity at mouse NPSR expressed in HEK293 cells assessed as increase in intracellular calcium mobilization at 10 uM by FLIPR; format: functional, cell-based

Compound | Activity
CSCC[C@H](NC(=O)CNC(=O)[C@@H](NC(=O)CNC(=O)[C@@H](NC(=O)CNC(=O)[C@H](CC(N)=O)NC(=O)[C@H](CCCNC(=N)NS(=O)(=O)c1ccc(C)cc1)NC(=O)[C@H](Cc1ccccc1)NC(=O)[C@@H](N)CO)C(C)C)[C@@H](C)O)C(=O)N[C@@H](CCCCN)C(=O)N[C@@H](CCCCN)C(=O)N[C@H](C(=O)N[C@@H](CO)C(=O)N[C@@H](Cc1ccccc1)C(=O)N[C@@H](CCC(N)=O)C(=O)N[C@@H](CCCNC(=N)N)C(=O)N[C@@H](C)C(=O)N[C@@H](CCCCN)C(=O)N[C@@H](CO)C(=O)O)[C@@H](C)O (H-SFR(Tos)NGVGTGMKKTSFQRAKS-OH) | 104%
CNC(=O)C[C@H](NC(=O)[C@H](CCCNC(=N)N)NC(=O)[C@H](Cc1ccccc1)NC(=O)[C@@H](N)CO)C(=O)NCC(=O)N[C@H](C(=O)NCC(=O)N[C@H](C(=O)NCC(=O)N[C@@H](CCSC)C(=O)N[C@@H](CCCCN)C(=O)N[C@@H](CCCCN)C(=O)N[C@H](C(=O)N[C@@H](CO)C(=O)N[C@@H](Cc1ccccc1)C(=O)N[C@@H](CCC(N)=O)C(=O)N[C@@H](CCCNC(=N)N)C(=O)N[C@@H](C)C(=O)N[C@@H](CCCCN)C(=O)N[C@@H](CO)C(=O)O)[C@@H](C)O)[C@@H](C)O)C(C)C (H-SFRD(NHMe)GVGTGMKKTSFQRAKS-OH) | 188%
CSCC[C@H](NC(=O)CNC(=O)[C@@H](NC(=O)CNC(=O)[C@@H](NC(=O)CNC(=O)[C@H](CC(=O)N(C)C)NC(=O)[C@H](CCCNC(=N)N)NC(=O)[C@H](Cc1ccccc1)NC(=O)[C@@H](N)CO)C(C)C)[C@@H](C)O)C(=O)N[C@@H](CCCCN)C(=O)N[C@@H](CCCCN)C(=O)N[C@H](C(=O)N[C@@H](CO)C(=O)N[C@@H](Cc1ccccc1)C(=O)N[C@@H](CCC(N)=O)C(=O)N[C@@H](CCCNC(=N)N)C(=O)N[C@@H](C)C(=O)N[C@@H](CCCCN)C(=O)N[C@@H](CO)C(=O)O)[C@@H](C)O (H-SFRD(NMe2)GVGTGMKKTSFQRAKS-OH) | 89%
CSCC[C@H](NC(=O)CNC(=O)[C@@H](NC(=O)CNC(=O)[C@@H](NC(=O)CNC(=O)[C@H](CCN)NC(=O)[C@H](CCCNC(=N)N)NC(=O)[C@H](Cc1ccccc1)NC(=O)[C@@H](N)CO)C(C)C)[C@@H](C)O)C(=O)N[C@@H](CCCCN)C(=O)N[C@@H](CCCCN)C(=O)N[C@H](C(=O)N[C@@H](CO)C(=O)N[C@@H](Cc1ccccc1)C(=O)N[C@@H](CCC(N)=O)C(=O)N[C@@H](CCCNC(=N)N)C(=O)N[C@@H](C)C(=O)N[C@@H](CCCCN)C(=O)N[C@@H](CO)C(=O)O)[C@@H](C)O (H-SFR[Dab]GVGTGMKKTSFQRAKS-OH) | 169%
CSCC[C@H](NC(=O)CNC(=O)[C@@H](NC(=O)CNC(=O)[C@@H](NC(=O)CNC(=O)[C@H](CC(C)=O)NC(=O)[C@H](CCCNC(=N)N)NC(=O)[C@H](Cc1ccccc1)NC(=O)[C@@H](N)CO)C(C)C)[C@@H](C)O)C(=O)N[C@@H](CCCCN)C(=O)N[C@@H](CCCCN)C(=O)N[C@H](C(=O)N[C@@H](CO)C(=O)N[C@@H](Cc1ccccc1)C(=O)N[C@@H](CCC(N)=O)C(=O)N[C@@H](CCCNC(=N)N)C(=O)N[C@@H](C)C(=O)N[C@@H](CCCCN)C(=O)N[C@@H](CO)C(=O)O)[C@@H](C)O (H-SFR[Nva(4-oxo)]GVGTGMKKTSFQRAKS-OH) | 136%
CCC[C@H](NC(=O)[C@H](CCCNC(=N)N)NC(=O)[C@H](Cc1ccccc1)NC(=O)[C@@H](N)CO)C(=O)NCC(=O)N[C@H](C(=O)NCC(=O)N[C@H](C(=O)NCC(=O)N[C@@H](CCSC)C(=O)N[C@@H](CCCCN)C(=O)N[C@@H](CCCCN)C(=O)N[C@H](C(=O)N[C@@H](CO)C(=O)N[C@@H](Cc1ccccc1)C(=O)N[C@@H](CCC(N)=O)C(=O)N[C@@H](CCCNC(=N)N)C(=O)N[C@@H](C)C(=O)N[C@@H](CCCCN)C(=O)N[C@@H](CO)C(=O)O)[C@@H](C)O)[C@@H](C)O)C(C)C (H-SFR[Nva]GVGTGMKKTSFQRAKS-OH) | 240%
CSCC[C@H](NC(=O)CNC(=O)[C@@H](NC(=O)CNC(=O)[C@@H](NC(=O)CNC(=O)[C@H](CC(N)=O)NC(=O)[C@H](Cc1ccccn1)NC(=O)[C@H](Cc1ccccc1)NC(=O)[C@@H](N)CO)C(C)C)[C@@H](C)O)C(=O)N[C@@H](CCCCN)C(=O)N[C@@H](CCCCN)C(=O)N[C@H](C(=O)N[C@@H](CO)C(=O)N[C@@H](Cc1ccccc1)C(=O)N[C@@H](CCC(N)=O)C(=O)N[C@@H](CCCNC(=N)N)C(=O)N[C@@H](C)C(=O)N[C@@H](CCCCN)C(=O)N[C@@H](CO)C(=O)O)[C@@H](C)O (H-SF[2Pal]NGVGTGMKKTSFQRAKS-OH) | 19%
